Results reported in US20090124634A1, “Novel dipodazine compounds and applications” (Viogard AB, priority 2005, published 2009).
Marks after values point to notes of the source that are not given here.

Assays:
[1] = system: B. improvisus; assay: Field experiment, paint-coated panels in sea water: recruitment/settlement of B. improvisus; type: in vivo, Balanus improvisus; conditions: for Reduction of recruitment (%): B. improvisus; for reduction of settlement of B. Improvisus: panels eight weeks in sea water, 0.2-1.5 m depth (FIG. 1)
Description: (§1) The effects of barettin and 8,9-Dihydrobarettin on B. improvisus recruitment was studied, by formulating different paints with different concentrations of the active substances.
(§2) The paints were commercially available paints and the four different paints are listed below:
One compound according to the present invention, benzo[g]dipodazine, which is the at present preferred compound, was formulated in a commercially available paint (SPF, from Lotréc, Lidingö, Sweden). The concentration of benzo[g]dipodazine in the paint was 0.1% and 0.01% based on the weight of the paint.
The paint was coated on panels in the same way as described above in Example 1 (comparative example). A control panel was coated with the same paint without benzo[g]dipodazine. All panels were immersed in sea water at a depth of 0.2-1.5 m, and maintained in the water for eight weeks.

[2] = system: M. edulis; assay: Field experiment, paint-coated panels in sea water: recruitment of M. edulis; type: in vivo, Mytilus edulis
Description: as §1, §2
Also, the effects of barettin and 8,9-dihydrobarettin on M. edulis recruitment were studied. When analyzing the data on the recruitment of M. edulis in the present field experiment, in a 3-factor analysis of variance with substance, paint and concentration as fixed factors, there was a significant interaction between the factors substance and paint. The main contribution to the significant interaction between the factors substance and paint is the result of barettin in combination with the SPF paint. […] However, the SNK-test could not reveal any significant differences between data.

[3] = system: cyprids larvae of B. improvisus; conditions: B. improvisus cypris larvae, from ref [27], cited from earlier work; for EC50: read-out: EC50, inhibition of settlement of cypris larvae
[4] = system: cyprids larvae of B. improvisus; assay: Larval settlement assay (barnacle cyprids in dishes), incl. reversibility test; type: in vivo, Balanus improvisus
Experimental: Barnacle cyprids larvae of B. improvisus was reared in the laboratory as described in [2]. The settlement propensity and mortality of barnacle cyprids were used to evaluate the bioactive effect of barettin and analogues. Stock solutions of all compounds shown in FIG. 4 were prepared by dissolving the compounds in dimethylsulfoxide (DMSO). The stock solutions were further diluted in filtered seawater (FSW, Millipore 0.2 μm) to yield the desired concentrations of 1×10^−4, 1×10^−3 and 1×10^−2 mg ml^−1. The settlement assays were performed using Petri dishes of untreated polystyrene (Nunc no 240045, Ø 48 mm) containing 10 ml of FSW to which 20±5 cyprids were added. Cyprids were used on their first or second day after moulting. Each treatment with a specific analogue was replicated 4 times and dishes with FSW only or FSW containing DMSO (0.1%) served as controls. Dishes were maintained for 3-4 days at room temperature (21±2° C.) in the prevailing light:dark cycle of 9:15 h. The effects of the different analogues, classified as either neutral, stimulatory or inhibitory, on the cyprids, were determined by examining the dishes under a stereo microscope and checking for 1) attached and metamorphosed individuals, 2) non-metamorphosed, alive, non-attached cyprids and 3) dead cyprids. Each substance was tested at least in two independent experimental series. […]

[5] = FabiEco paint, 0.01% in paint, listed as 8,9-dihydro-barettin
[6] = FabiEco paint, 0.1% in paint, listed as 8,9-dihydro-barettin
[7] = SPF paint, 0.01% in paint, vs control panels
[8] = SPF paint, 0.1% in paint, vs control panels
[9] = SPF paint, 0.01% in paint, 8-week period
[10] = SPF paint, 0.1% in paint, 8-week period

N=C(N)NCCC[C@@H]1NC(=O)[C@H](Cc2c[nH]c3cc(Br)ccc23)NC1=O [8,9-dihydrobarettin]
Reduction of recruitment (%) ([1]; FabiEco paint, 0.01% in paint): 59%
Reduction of recruitment (%) [1, 5]: 59* %
Reduction of recruitment (%) ([1]; FabiEco paint, 0.1% in paint): 69%
Reduction of recruitment (%) [1, 6]: 69*** %
Reduction of recruitment (%) ([1]; H2000 paint, 0.01% in paint): 46%
Reduction of recruitment (%) ([1]; H2000 paint, 0.1% in paint): 20%
Reduction of recruitment (%) [1, 7]: 43%
Reduction of recruitment (%) [1, 8]: 61%
Reduction of recruitment (%) ([1]; SPF paint, 0.1% in paint, vs control panels, listed as 8,9-dihydro-barettin): 61** %
Reduction of recruitment (%) ([1]; TF paint, 0.01% in paint): −10%
Reduction of recruitment (%) ([1]; TF paint, 0.1% in paint): −1%
Reduction of recruitment (%) ([2]; FabiEco paint, 0.01% in paint): 50%
Reduction of recruitment (%) [2, 5]: 50* %
Reduction of recruitment (%) ([2]; FabiEco paint, 0.1% in paint): 67%
Reduction of recruitment (%) [2, 6]: 67** %
Reduction of recruitment (%) ([2]; H2000 paint, 0.01% in paint): 53%
Reduction of recruitment (%) ([2]; H2000 paint, 0.01% in paint, listed as 8,9-dihydro-barettin): 53* %
Reduction of recruitment (%) ([2]; H2000 paint, 0.1% in paint): 39%
Reduction of recruitment (%) [2, 9]: 52%
Reduction of recruitment (%) [2, 10]: 72%
Reduction of recruitment (%) ([2]; SPF paint, 0.1% in paint, 8-week period, listed as 8,9-dihydro-barettin): 72** %
Reduction of recruitment (%) ([2]; TF paint, 0.01% in paint): −28%
Reduction of recruitment (%) ([2]; TF paint, 0.1% in paint): 3.8%
effect on larval mortality [3]: none of the compounds displayed any significant effect on larval mortality
EC50 [3]: 7.9 µM

N=C(N)NCCC[C@@H]1NC(=O)/C(=C/c2c[nH]c3cc(Br)ccc23)NC1=O [barettin]
Reduction of recruitment (%) ([1]; FabiEco paint, 0.01% in paint): 45%
Reduction of recruitment (%) ([1]; FabiEco paint, 0.1% in paint): 49%
Reduction of recruitment (%) ([1]; H2000 paint, 0.01% in paint): 28%
Reduction of recruitment (%) ([1]; H2000 paint, 0.1% in paint): 23%
Reduction of recruitment (%) [1, 7]: 67%
Reduction of recruitment (%) [1, 8]: 89%
Reduction of recruitment (%) ([1]; TF paint, 0.01% in paint): 25%
Reduction of recruitment (%) ([1]; TF paint, 0.1% in paint): 17%
Reduction of recruitment (%) ([2]; FabiEco paint, 0.01% in paint): 51%
Reduction of recruitment (%) ([2]; FabiEco paint, 0.1% in paint): 47%
Reduction of recruitment (%) ([2]; H2000 paint, 0.01% in paint): 26%
Reduction of recruitment (%) ([2]; H2000 paint, 0.1% in paint): 12%
Reduction of recruitment (%) [2, 9]: 83%
Reduction of recruitment (%) [2, 10]: 81%
Reduction of recruitment (%) ([2]; TF paint, 0.01% in paint): 51* %
Reduction of recruitment (%) ([2]; TF paint, 0.01% in paint, listed as Barettin): 51%
Reduction of recruitment (%) ([2]; TF paint, 0.1% in paint): 6%
effect on larval mortality [3]: none of the compounds displayed any significant effect on larval mortality
EC50 [3]: 0.9 µM

O=C1CNC(=O)/C(=C/c2c[nH]c3c2ccc2ccccc23)N1 [benzo[g]dipodazine]
inhibition of settlement of cyprids ([4]; 34 μM in dishes (FIG. 2A)): complete inhibition
reversibility: ability of cyprids to settle again in fresh seawater after exposure ([4]; totally inhibited cyprids transferred to fresh sea water (FSW) (FIG. 2B)): regained this capability when transferred to fresh sea water
reduction of settlement of B. Improvisus ([1]; SPF paint, 0.01% by weight of paint): about 73%
reduction of settlement of B. Improvisus ([1]; SPF paint, 0.1% by weight of paint): about 85%

O=C1CNC(=O)C(=Cc2cc3ccccc3s2)N1 [compound 12, 3-[1-benzothiophen-2-yl-methylidene]-piperazine-2,5-dione]
melting point: 258 °C
